From patent US6262241A, “Compound for detecting and modulating RNA activity and gene expression” (Isis Pharmaceuticals, Inc., priority 1995, dated 2001)

What was measured:
[1] = tested on: Y STRAND 3'-GAG CAU GGY' AAG GCC AGG (SEQ ID NO: 7); format: binding
[2] = tested on: nucleases; conditions: cited from earlier work

| Molecule | Tm, G-C [1] [C] | delta Tm, G-A [1] [C] | delta Tm, G-Bu [1] [C] | delta Tm, G-G [1] | delta Tm, G-T [1] [C] | nuclease resistance [2] |
| --- | --- | --- | --- | --- | --- | --- |
| Nc1cc2c(ncn2[C@@H]2O[C@H](CO)[C@@H](O)[C@H]2O)c(=O)[nH]1 [3-deazaguanosine] | 59 | -2 | -7 | +1 C | -1 |  |
| poly(2'-chloro-2'-deoxycytidylic acid) |  |  |  |  |  | resistant to various nucleases |
| poly(2'-chloro-2'-deoxyuridylic acid) |  |  |  |  |  | resistant to various nucleases |
